Data on 1 molecule can be found in patent US11219614B2, “Combination cancer therapy with pentaaza macrocyclic ring complex and ascorbate compound” (Galera Labs, LLC, priority 2016, dated 2022).

In this data set the test system is head and neck squamous cell carcinoma cells (SQ20B). In words: clonogenic cell survival assay, SQ20B. It counts as cell-based, Human. The protocol:
FIG. 5 is a plot showing the surviving fraction of SQ20B cells for increasing amounts of ascorbate, as determined by a clonogenic cell survival assay used to determine the effects of the compound alone and in combination with a pentaaza macrocyclic ring complex (GC4419). Human head and neck squamous cell carcinoma cells (SQ20B) were exponentially grown in culture for 48 hours. The cells were then treated with 5-20 μM GC4419 for 24 hours, followed by treatment with 5-20 pmol/cell ascorbate for 1 hour. The cells were then trypsinized, counted, replated at varying lower densities and incubated. Plates were stained and counted for clonogenic survival assays.
FIG. 7 is a graph showing the surviving fraction of SQ20B cells treated with ascorbate and combinations including ascorbate. The effects of ascorbate in combination with a pentaaza macrocyclic ring complex (GC4419) was tested in a clonogenic cell survival assay to determine the effects of the combination alone and when paired with ionizing radiation. Human head and neck squamous cell carcinoma cells (SQ20B) were plated and grown in culture for 48 hours. The cells were then treated with 5 μM GC4419 for 24 hours and 10 pmol/cell ascorbate (AA) for 1 hour, either alone, in combination (GC+AA), and/or paired with a dose of ionizing radiation (2 Gy). After the ionizing radiation dose, the cells were trypsinized, counted, replated at varying lower densities and incubated. Plates were stained and counted for clonogenic survival assays.
FIG. 8 is a graph showing the surviving fraction of SQ20B cells treated with ascorbate and combinations including ascorbate. The effects of ascorbate in combination with a pentaaza macrocyclic ring complex (GC4419) was tested in a clonogenic cell survival assay to determine the effects of the combination alone and when paired with the chemotherapeutic agent cisplatin. Human head and neck squamous cell carcinoma cells (SQ20B) were plated and grown in culture for 48 hours. The cells were then treated with cisplatin for 6 hours, 10 μM GC4419 for 3 hours, and 10 pmol/cell ascorbate (AA) for 1 hour. The cells were then trypsinized, counted, replated at varying lower densities and incubated. Plates were stained and counted for clonogenic survival assays.
The effect of ascorbate was tested in a clonogenic cell survival assay to determine the effects of the compound alone and in combination with a pentaaza macrocyclic ring complex (GC4419). Human head and neck squamous cell carcinoma cells (SQ20B) were exponentially grown in culture for 48 hours. The cells were then treated with 5-20 μM GC4419 for 24 hours, followed by treatment with 5-20 pmol/cell ascorbate for 1 hour. The cells were then trypsinized, counted, replated at varying lower densities and incubated. Plates were stained and counted for clonogenic survival assays.
The effects of ascorbate in combination with a pentaaza macrocyclic ring complex (GC4419) was tested in a clonogenic cell survival assay to determine the effects of the combination alone and when paired with ionizing radiation. Human head and neck squamous cell carcinoma cells (SQ20B) were plated and grown in culture for 48 hours. […] After the ionizing radiation dose, the cells were trypsinized, counted, replated at varying lower densities and incubated. Plates were stained and counted for clonogenic survival assays. […]

With `[Cl][Mn][Cl].c1cc2nc(c1)CN[C@H]1CCCC[C@@H]1NCCN[C@H]1CCCC[C@@H]1NC2` [GC4419], under “5 μM GC4419 24 h + 10 pmol/cell ascorbate 1 h (GC+AA), FIG. 7”, the “synergistic activity of the combination” value was “more than merely an additive effect”. The “cell killing (clonogenic survival)” value is “significant enhancements in cell killing” (5 μM GC4419 24 h + 10 pmol/cell ascorbate 1 h (GC+AA), compared to control and to each alone, FIG. 7); “significant enhancements in cell killing” (cisplatin 6 h + 10 μM GC4419 3 h + 10 pmol/cell ascorbate 1 h, compared to control and cisplatin, GC4419 or ascorbate monotherapies, FIG. 8). Further, the “cytotoxicity (clonogenic survival)” value (5-20 pmol/cell ascorbate 1 h in combination with 5, 10 or 20 μM GC4419 24 h, FIG. 5) is on record as “increases the cytotoxicity of GC4419 or ascorbate”. The “sensitization to ionizing radiation” value (GC+AA+IR (2 Gy) compared to IR 2Gy alone, FIG. 7) is on record as “sensitized the cancer cells to radiation”.
